Experimental data reported in PMC6045899 (International Journal of Nanomedicine, 2018).

Legend:
[1] = tested on: PC cells (primary cardiac cells); assay: In vitro cytotoxicity, MTT bioassay; assay type: cell-based, Wistar rats; conditions: 1–200 μM, 24 h
[2] = In vivo pharmacokinetics after iv administration in AMI rats; conditions: plasma concentration–time profile
AMI rats = tested on: AMI rats; design: species or system Sprague Dawley rats; conditions: rat, in vivo, 50 mg/kg

## Cc1coc2c1C(=O)C(=O)c1c-2ccc2c1CCCC2(C)C [Free TN, tanshinone IIA]
[1]
  in vitro cytotoxicity (in words): obvious higher cytotoxicity than the nanocarriers in high concentrations (100 and 200 μM)
[2]
  time within which cleared from the circulation: ≤ 6 h
AMI rats
  infarct size (percentage of whole size of the left ventricle): 51%±1.8%
